From patent US20100168102A9, “Amide Derivatives as Kinase Inhibitors” (Devgen NV, priority 2005, published 2010) come the findings set out here.

Like-named read-outs stand apart in the source and are kept apart here.

One experiment concerns the target T1, PKC epsilon (Homo sapiens, UniProt Q02156).
T1 construct: purchased Invitrogen P2282
T1 sequence (Q02156 1-737): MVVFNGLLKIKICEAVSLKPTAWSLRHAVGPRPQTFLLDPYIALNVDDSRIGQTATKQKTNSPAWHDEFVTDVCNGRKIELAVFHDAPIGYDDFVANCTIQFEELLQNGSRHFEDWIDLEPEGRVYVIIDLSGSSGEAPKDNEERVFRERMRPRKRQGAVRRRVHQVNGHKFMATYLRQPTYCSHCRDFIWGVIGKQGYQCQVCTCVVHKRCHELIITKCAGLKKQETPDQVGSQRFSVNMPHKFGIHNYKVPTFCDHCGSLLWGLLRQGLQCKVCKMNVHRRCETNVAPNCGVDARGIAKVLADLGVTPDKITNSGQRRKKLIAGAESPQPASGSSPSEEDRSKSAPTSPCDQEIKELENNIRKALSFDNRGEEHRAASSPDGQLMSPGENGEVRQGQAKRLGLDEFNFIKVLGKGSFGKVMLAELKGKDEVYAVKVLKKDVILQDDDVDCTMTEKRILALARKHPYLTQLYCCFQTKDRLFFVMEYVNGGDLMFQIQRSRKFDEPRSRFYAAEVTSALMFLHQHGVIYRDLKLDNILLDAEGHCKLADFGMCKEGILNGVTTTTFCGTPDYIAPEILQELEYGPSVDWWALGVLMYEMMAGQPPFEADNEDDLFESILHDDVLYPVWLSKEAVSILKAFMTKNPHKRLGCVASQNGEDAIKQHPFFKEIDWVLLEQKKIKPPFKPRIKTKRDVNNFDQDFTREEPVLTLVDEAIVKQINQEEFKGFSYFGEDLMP
Description: Biochemical assay for PKC epsilon (fluorescence polarization, Protein Kinase C Assay Kit, Red). The following applies: read-out: IC50 μM PKCε. The essentials: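 Read-out was fluorescence-polarization competition between phosphorylated substrate and a rhodamine PKC tracer for an anti-phosphoserine antibody, added with EDTA stop after an 80 min room-temperature kinase reaction with ATP and protein substrate (Mg2+/Ca2+ buffer). Enzyme (10 ng/ml final) was preincubated with compound for 30 min.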
In general terms: Polarisation of emitted light reports the rotation of a fluorescent probe.

In the next experiment the target is T2, human ROCKα/ROCKII mix (Homo sapiens, UniProt O75116).
T2 construct: purchased Upstate Biotechnology 14-451
Description: Biochemical assay for ROCK (fluorescence polarization, ROCK IMAP Kit).

Where [1] appears, read: Table 2, compounds of Formula XIII.
The mark [2] stands for this setting: compounds of Formula XIV, Table 3.

T2 sequence (O75116 11-552 limits assumed): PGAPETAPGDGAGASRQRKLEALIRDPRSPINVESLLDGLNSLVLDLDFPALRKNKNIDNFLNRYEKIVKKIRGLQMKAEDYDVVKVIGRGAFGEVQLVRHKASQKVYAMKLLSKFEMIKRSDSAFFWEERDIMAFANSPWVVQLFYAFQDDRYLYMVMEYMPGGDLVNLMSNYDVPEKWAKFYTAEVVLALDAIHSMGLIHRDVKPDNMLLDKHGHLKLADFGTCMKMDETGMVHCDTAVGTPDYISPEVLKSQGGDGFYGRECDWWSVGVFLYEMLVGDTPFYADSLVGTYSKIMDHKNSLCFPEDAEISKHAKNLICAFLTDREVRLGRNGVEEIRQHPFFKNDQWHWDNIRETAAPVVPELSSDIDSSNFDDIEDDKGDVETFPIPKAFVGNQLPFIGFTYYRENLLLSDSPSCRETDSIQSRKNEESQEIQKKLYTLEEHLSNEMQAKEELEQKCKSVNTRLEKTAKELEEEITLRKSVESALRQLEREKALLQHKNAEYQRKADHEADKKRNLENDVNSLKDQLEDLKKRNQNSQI

`COc1ccccc1CC(=O)N(C)CC(N)c1ccc(C(=O)Nc2ccncc2)cc1` (centres unmarked) [Compound 425, 4-(1-Amino-2-{[2-(2-methoxy-phenyl)-acetyl]-methyl-amino}-ethyl)-N-pyridin-4-yl-benzamide]: the IC50 on PKC epsilon lay in the range of 5 to 50 µM; at human ROCKα/ROCKII mix, 0.5 to 5 µM.

In the case of `Cc1cc(Cl)ccc1NC(=O)NCC(N)c1ccc(C(=O)Nc2ccncc2)cc1` (centres unmarked) [Compound 26, 4-{1-amino-2-[3-(4-chloro-2-methyl-phenyl)-ureido]-ethyl}-N-pyridin-4-yl-benzamide], the IC50 on PKC epsilon and against human ROCKα/ROCKII mix was 0.05 to 0.5 µM in each case.

In the case of `CN(CC(N)c1ccc(C(=O)Nc2ccncc2)cc1)C(=O)Cc1ccc(Cl)cc1F` (centres unmarked) [Compound 502, 4-(1-Amino-2-{[2-(4-chloro-2-fluoro-phenyl)-acetyl]-methyl-amino}-ethyl)-N-pyridin-4-yl-benzamide], the concentration for half-maximal inhibition (IC50) at PKC epsilon lay within 5 to 50 µM; against human ROCKα/ROCKII mix, 0.5 to 5 µM.

`NC(CNC(=S)Nc1ccccc1)c1ccc(C(=O)Nc2ccncc2)cc1` (centres unmarked) [Compound 11, 4-[1-amino-2-(3-phenyl-thioureido)-ethyl]-N-pyridin-4-yl-benzamide]: the values for the IC50 at PKC epsilon and at human ROCKα/ROCKII mix were 0.5 to 5 µM and 0.05 to 0.5 µM, respectively.

For `NC(c1ccc(C(=O)Nc2ccncc2)cc1)C1CCCN1C(=O)Cc1ccc2ccccc2c1` (centres unmarked) [Compound 535, 4-{Amino-[1-(2-naphthalen-2-yl-acetyl)-pyrrolidin-2-yl]-methyl}-N-pyridin-4-yl-benzamide], the IC50 at PKC epsilon and against human ROCKα/ROCKII mix was 0.5 to 5 µM in each case.

Turning to `NC(CNC(=S)Nc1ccc(OC(F)(F)F)cc1)c1ccc(C(=O)Nc2ccncc2)cc1` (centres unmarked) [Compound 15, 4-{1-amino-2-[3-(4-trifluoromethoxy-phenyl)-thioureido]-ethyl}-N-pyridin-4-yl-benzamide], the concentration for half-maximal inhibition (IC50) at PKC epsilon lay in the range of 5 to 50 µM; at human ROCKα/ROCKII mix, 0.5 to 5 µM.

In the case of `COc1ccc(C2(C(=O)NCC(N)c3ccc(C(=O)Nc4ccncc4)cc3)CCCC2)cc1` (centres unmarked) [Compound 344, 4-(1-Amino-2-{[1-(4-methoxy-phenyl)-cyclopentanecarbonyl]-amino}-ethyl)-N-pyridin-4-yl-benzamide], the IC50 on PKC epsilon (setting [1]) and on human ROCKα/ROCKII mix (setting [1]) was 0.05 to 0.5 µM throughout.

As for “4-{1-amino-2-[2-(4-bromo-2- methoxy-phenyl)- ethylcarbamoyl]-ethyl}-N- pyridin-4-yl-benzamide [Compound 310]”, the IC50 is 0.5 to 5 µM on PKC epsilon (setting [2]) and 0.05 to 0.5 µM against human ROCKα/ROCKII mix (setting [2]).

In the case of `NC(CNC(=O)c1ccc(C(=O)c2ccccc2)cc1)c1ccc(C(=O)Nc2ccncc2)cc1` (centres unmarked) [Compound 100, 4-[1-amino-2-(4-benzoyl-benzoylamino)-ethyl]-N-pyridin-4-yl-benzamide], the IC50 on PKC epsilon (setting [1]) lay within 5 to 50 µM; against human ROCKα/ROCKII mix (setting [1]) it was 0.5 to 5 µM.

As to `NC(CC(=O)NCc1cccc([N+](=O)[O-])c1)c1ccc(C(=O)Nc2ccncc2)cc1` (centres unmarked) [Compound 272, 4-[1-Amino-2-(3-nitro-benzylcarbamoyl)-ethyl]-N-pyridin-4-yl-benzamide], the IC50 was in the range of 0.5 to 5 µM at PKC epsilon (setting [2]) and 0.05 to 0.5 µM against human ROCKα/ROCKII mix (setting [2]).

In the case of `NC(CNC(=O)c1ccc(-c2ccccc2)cc1)c1ccc(C(=O)Nc2ccncc2)cc1` (centres unmarked) [Compound 88, Biphenyl-4-carboxylic acid {2-amino-2-[4-(pyridin-4-ylcarbamoyl)-phenyl]-ethyl}-amide], the IC50 on PKC epsilon (setting [1]) fell in the range of 5 to 50 µM; against human ROCKα/ROCKII mix (setting [1]), 0.5 to 5 µM.

Regarding `NC(CNC(=O)COc1ccc(F)cc1)c1ccc(C(=O)Nc2ccncc2)cc1` (centres unmarked) [Compound 157, 4-{1-Amino-2-[2-(4-fluoro-phenoxy)-acetylamino]-ethyl}-N-pyridin-4-yl-benzamide], the IC50 at PKC epsilon (setting [1]) and against human ROCKα/ROCKII mix (setting [1]) was 0.05 to 0.5 µM in each case.

For the compound `NC(CC(=O)NCCc1cccs1)c1ccc(C(=O)Nc2ccncc2)cc1` (centres unmarked) [Compound 311, 4-[1-amino-2-(2-thiophen-2-yl-ethylcarbamoyl)-ethyl]-N-pyridin-4-yl-benzamide], the IC50 lay within 0.5 to 5 µM on PKC epsilon (setting [2]) and 0.05 to 0.5 µM on human ROCKα/ROCKII mix (setting [2]).

As for `CN(CC(N)c1ccc(C(=O)Nc2ccncc2)cc1)C(=O)C1CCSc2ccc(F)cc21` (centres unmarked) [Compound 518, 6-Fluoro-thiochroman-4-carboxylic acid {2-amino-2-[4-(pyridin-4-ylcarbamoyl)-phenyl]-ethyl}-methyl-amide], the half-inhibitory concentration (IC50) at PKC epsilon and at human ROCKα/ROCKII mix was 5 to 50 µM each time.

As to `NC(c1ccc(C(=O)Nc2ccncc2)cc1)C1CCCN1C(=O)Cc1cc(F)ccc1F` (centres unmarked) [Compound 579, 4-(Amino-{1-[2-(2,5-difluoro-phenyl)-acetyl]-pyrrolidin-2-yl}-methyl)-N-pyridin-4-yl-benzamide], the IC50 was 5 to 50 µM at PKC epsilon and 0.5 to 5 µM on human ROCKα/ROCKII mix.

Take `NC(CNC(=O)Cc1ccccn1)c1ccc(C(=O)Nc2ccncc2)cc1` (centres unmarked) [Compound 150, 4-[1-Amino-2-(2-pyridin-2-yl-acetylamino)-ethyl]-N-pyridin-4-yl-benzamide]: the half-inhibitory concentration (IC50) at PKC epsilon (setting [1]) fell in the range of 5 to 50 µM; at human ROCKα/ROCKII mix (setting [1]), 0.5 to 5 µM.

For `COc1ccc(C2(C(=O)N(C)CC(N)c3ccc(C(=O)Nc4ccncc4)cc3)CC2)cc1` (centres unmarked) [Compound 428, 4-(1-Amino-2-{[1-(4-methoxy-phenyl)-cyclopropanecarbonyl]-methyl-amino}-ethyl)-N-pyridin-4-yl-benzamide], the 50% inhibitory concentration (IC50) fell in the range of 5 to 50 µM at PKC epsilon and 0.5 to 5 µM against human ROCKα/ROCKII mix.

As for `NC(CC(=O)Nc1cc(-c2ccco2)[nH]n1)c1ccc(C(=O)Nc2ccncc2)cc1` (centres unmarked) [Compound 323, 4-[1-Amino-2-(5-furan-2-yl-1H-pyrazol-3-ylcarbamoyl)-ethyl]-N-pyridin-4-yl-benzamide], the IC50 on PKC epsilon (setting [2]) is 0.5 to 5 µM; against human ROCKα/ROCKII mix (setting [2]), 0.05 to 0.5 µM.

As to `NC(CC(=O)NCc1ccc([N+](=O)[O-])cc1)c1ccc(C(=O)Nc2ccncc2)cc1` (centres unmarked) [Compound 273, 4-[1-Amino-2-(4-nitro-benzylcarbamoyl)-ethyl]-N-pyridin-4-yl-benzamide], the IC50 was 0.5 to 5 µM on PKC epsilon (setting [2]) and 0.05 to 0.5 µM against human ROCKα/ROCKII mix (setting [2]).

Turning to `COc1cccc2cc(C(=O)NCC(N)c3ccc(C(=O)Nc4ccncc4)cc3)oc12` (centres unmarked) [Compound 133, 7-Methoxy-benzofuran-2-carboxylic acid {2-amino-2-[4-(pyridin-4-ylcarbamoyl)-phenyl]-ethyl}-amide], the IC50 at PKC epsilon (setting [1]) lay within 5 to 50 µM; against human ROCKα/ROCKII mix (setting [1]), 0.05 to 0.5 µM.

With `CC(C)(C(=O)NCC(N)c1ccc(C(=O)Nc2ccncc2)cc1)c1ccc(F)cc1Cl` (centres unmarked) [Compound 386, 4-{1-Amino-2-[2-(2-chloro-4-fluoro-phenyl)-2-methyl-propionylamino]-ethyl}-N-pyridin-4-yl-benzamide], the concentration for half-maximal inhibition (IC50) on PKC epsilon (setting [1]) was less than 0.05 µM; against human ROCKα/ROCKII mix (setting [1]) it was 0.05 to 0.5 µM.

“4-(1-Amino-2-{[2-(4-chloro- phenyl)-acetyl]-methyl- amino}-ethyl)- N-pyridin-4-yl-benzamide [Compound 460]”: the IC50 at PKC epsilon lay within 5 to 50 µM; against human ROCKα/ROCKII mix, 0.5 to 5 µM.

Regarding “4-(1-Amino-2-{[2-(4- hydroxy-3-nitro-phenyl)- acetyl]-methyl- amino]-ethyl)- N-pyridin-4-yl-benzamide [Compound 439]”, the concentration for half-maximal inhibition (IC50) fell in the range of 5 to 50 µM on PKC epsilon and 0.05 to 0.5 µM against human ROCKα/ROCKII mix.

As to `CCOC(=O)CCNC(=O)NCC(N)c1ccc(C(=O)Nc2ccncc2)cc1` (centres unmarked) [Compound 6, 3-(3-{2-amino-2-[4-(pyridin-4-ylcarbamoyl)-phenyl]-ethyl}-ureido)-propionic acid ethyl ester], the IC50 on PKC epsilon lay in the range of 5 to 50 µM; on human ROCKα/ROCKII mix it was 0.5 to 5 µM.

Consider `NC(CC(=O)NCc1ccc(C(F)(F)F)cc1)c1ccc(C(=O)Nc2ccncc2)cc1` (centres unmarked) [Compound 265, 4-[1-Amino-2-(4-trifluoromethyl-benzylcarbamoyl)-ethyl]-N-pyridin-4-yl-benzamide], for which the figures for the half-maximal inhibitory concentration (IC50) on PKC epsilon (setting [2]) and against human ROCKα/ROCKII mix (setting [2]) were 0.5 to 5 µM and 0.05 to 0.5 µM, respectively.

Take `NC(CC(=O)NCc1cccc(Br)c1)c1ccc(C(=O)Nc2ccncc2)cc1` (centres unmarked) [Compound 260, 4-[1-Amino-2-(3-bromo-benzylcarbamoyl)-ethyl]-N-pyridin-4-yl-benzamide]: the IC50 at PKC epsilon (setting [2]) was in the range of 0.5 to 5 µM; against human ROCKα/ROCKII mix (setting [2]), 0.05 to 0.5 µM.

Turning to `NC(c1ccc(C(=O)Nc2ccncc2)cc1)C1CCCN1C(=O)Cc1ccc(Cl)c(Cl)c1` (centres unmarked) [Compound 592, 4-(Amino-{1-[2-(3,4-dichloro-phenyl)-acetyl]-pyrrolidin-2-yl}-methyl)-N-pyridin-4-yl-benzamide], the IC50 at PKC epsilon and against human ROCKα/ROCKII mix was 0.5 to 5 µM throughout.

In the case of `NC(CNC(=O)c1ccc([N+](=O)[O-])o1)c1ccc(C(=O)Nc2ccncc2)cc1` (centres unmarked) [Compound 120, 5-Nitro-furan-2-carboxylic acid {2-amino-2-[4-(pyridin-4-ylcarbamoyl)-phenyl]-ethyl}-amide], the IC50 at PKC epsilon (setting [1]) and on human ROCKα/ROCKII mix (setting [1]) was 0.5 to 5 µM each time.

Usually IC50 stands for the concentration at which inhibition is half-maximal.
